Assay results: patent publication US20150190407A1, “METHODS FOR TREATMENT OF POSTOPERATIVE INFLAMMATION WITH REDUCED INTRAOCULAR PRESSURE” (Insite Vision Incorporated, priority 2014, published 2015)
Like-named read-outs stand apart in the source and are kept apart here. Blank lines part the entries; values can stand above or below the molecule they belong to.

Assays:
[1] = cited from earlier work
[2] = after 8 days of treatment for inflammation following ocular surgery; cited from earlier work
[3] = Release from the vehicle in the rabbit eye, measured in aqueous humor; type: in vivo; conditions: in the ophthalmically acceptable vehicle
Description: The viscous gels that result upon administration of the aqueous suspensions of the present disclosure to the eye have residence times in the eye ranging from about 2 to about 12 hours, e.g., from about 3 to about 6 hours. The active ingredients contained in these ophthalmically acceptable vehicles are released from the gels at rates that depend on such factors as the active ingredient itself and its physical form, the extent of drug loading and the pH of the system, as well as on any drug delivery adjuvants, such as ion exchange resins compatible with the ocular surface, which can also be present.

Structure (SMILES): C[C@@H]1C[C@H]2[C@@H]3CCC4=CC(=O)C=C[C@]4(C)[C@@]3(F)[C@@H](O)C[C@]2(C)[C@@]1(O)C(=O)COP(=O)(O)O [dexamethasone phosphate]
increase of intraocular pressure ([1]; after one week): 1-2 mmHg
increase of intraocular pressure ([1]; after six weeks): 5-6 mmHg
increase of intraocular pressure ([1]; after two weeks): 3-4 mmHg
median intraocular pressure vs placebo (saline 0.9%) [2]: significantly higher

Structure (SMILES): C[C@@H]1C[C@H]2[C@@H]3CCC4=CC(=O)C=C[C@]4(C)[C@@]3(F)[C@@H](O)C[C@]2(C)[C@@]1(O)C(=O)CO [dexamethasone]
rise in IOP (published data) ([1]; administered without the benefit of a sustained release vehicle): 3-4 mmHg

release rates in the rabbit eye, as measured by fluorometholone contained in the aqueous humor [3]: in excess of four hours
Structure (SMILES): CC(=O)[C@@]1(O)CC[C@H]2[C@@H]3C[C@H](C)C4=CC(=O)C=C[C@]4(C)[C@@]3(F)[C@@H](O)C[C@@]21C [fluorometholone]
